Experimental data from patent publication US20120189579A1 (priority 2009, published 2012).

Assays:
[1] = target: T1, purified HCV NS5B with a deletion of the 21 C-terminal amino acids (Hepatitis C virus genotype 1b, UniProt Q9WMX2); assay: HCV NS5B RdRp enzyme assay; format: biochemical; conditions: read-out: inhibition (RdRp enzyme assay)
T1 construct: purified HCV NS5B with a deletion of the 21 C-terminal amino acids
Protocol: The assay was performed in a total volume of 20 μl containing 20 mM Tris pH 7.5, 1 mM DTT, 17 U RNasin, 50 mM NaCl, 10% DMSO, 5 mM MgCl2, 0.5 mM each of the 3 NTPs (ATP, CTP, GTP), 86 nM RNA template (341 nt from the 3′ end of HCV minus strand RNA), 50 nM of purified HCV NS5B with a deletion of the 21 C-terminal amino acids and 2 μCi [^3H]UTP (46 Ci·mmol^−1). The reaction mixture was incubated for 2 h at 25-30° C. and the radio labeled products were precipitated by the addition of 10% TCA. The radioactivity incorporated was quantified by counting in a Wallac scintillation counter. Increasing concentrations of tested compounds were added to the complete RdRp reaction mixture. After a two hour incubation period at 25-30° C., the amount of labeled product was determined as above. Two types of control reactions were done: a negative control corresponding to the complete mixture without enzyme and a positive control with enzyme but without compounds. In each experiment, test and control samples are in duplicate.
The level of activity with each compound concentration was expressed with the formulae: […]
The IC50 value was calculated as the compound concentration reducing polymerase activity by 50%.

[2] = tested on: HCV replicon Luc Neo ET in Huh-7 cells; assay: Replicon assay (Luc Neo ET replicon); format: cell-based; conditions: Hepatitis C virus, 72 hours with compound, firefly luciferase reporter, read-out: EC50—Replicon LucneoET
Protocol: (§1) Human Hepatoma Huh-7 cell line was maintained in DMEM/HAMF-12 supplemented with 10% SVF, 4 mM glutamine, […] Na pyruvate, 1% penistreptomycine. HCV replicon containing Huh-7 cell lines Huh-9.13 and Luc Neo ET (Reblikon) were maintained in DMEM supplemented with 10% SVF, 2 mM glutamine, and 1×NEAA, 100 U/ml penicillin, and 100 μg/ml streptomycine. Replicon cells were maintained in medium supplemented with 1 mg/ml G418 for replicon Huh-9.13 and 0.5 mg/ml for Luc Neo et replicon unless indicated otherwise. Huh-7 and HCV replicon cell lines were maintained at 37° C. and 5% CO2 in a humidified atmosphere. Cells were dissociated at sub confluence with trypsin EDTA 1×.
Replicon Luc Neo ET is a bicistronic expression constructs (Lohmann et al, 1999, Science 285, 110-113). In brief, the structural genes of the HCV genome were replaced by heterologous sequences; the gene encoding the neomycin phosphotransferase (NPT) and the internal ribosome entry site (IRES) of the encephalomyocarditis virus (EMCV). The bicistronic construct is therefore composed of the following elements: HCV-IRES nucleotides 1-389, the NPT gene, the EMCV-IRES directing translation of downstream HCV sequences from NS2 or NS3 up to the authentic 3′ end of the genome. HCV Polyprotein harbours the cell culture adaptive mutations E1202G, T1280I, K1846T. G418-resistance is only possible with cells containing high amounts of replicon.
Cells were dissociated the day before addition of compounds and seeded in 96 well-plates at a final concentration of 77 777.77 cells·ml^−1·well^−2 in 90 μl final volume of culture medium per well and were maintained at 37° C. and 5% CO2 in a humidified atmosphere for 24 hours. 10 μl of compounds to be tested were added 24 hours after seeding. Final concentration of DMSO was 1%. Cells were incubated in the presence of compounds for 72 hours after which expression of firefly luciferase reporter gene was quantified. Briefly, culture medium was removed and cells were lysed by addition of 100 μl of lysis buffer containing 125 mM Tris Phosphate ph 7.8, 10 mM EDTA, 5 mM DTT, 50% glycerol and 5% Triton. Plates were vortexed 10 min at 1300 rpm. Cell lysat was transferred in OpaqueWhite Assay 96 well Flat Bottom plates. 100 μl of luciferin solution 1× were added to each well. Luciferin solution contained 40 mM Tris Phosphate ph 7.8, 0.2 mM EDTA, 67 mM DTT, 2.14 mM MgCl2, 5.4 mM MgSO4, 4.7×10^−4 M luciferin, 5.3×10^−4 M ATP and 2.7×10^−4 M Acetyl co enzyme A. Luminescence was immediately measured with Berthold Microlumat Plus LB 96V luminometer with an integration of 0.5 sec Inhibition was calculated using the formula:
% inhibition=1−[(RLUsample−RLUbackground)/(RLUsignal−RLUbackground)]

[3] = target: T2, HCV NS5BΔ21/Gal4-DBD fusion protein (Hepatitis C virus genotype 1b, UniProt Q9WMX2); assay: 3D-SCREEN assay (NS5B reporter gene assay in Huh-7 cells); format: cell-based, HCV genotype 1b
T2 construct: The protein was expressed with a 21 amino acid C-terminal deletion to remove transmembrane domain; expressed in transfected cells; host or cells: Huh-7 (transient transfection)
Protocol: as §1
cDNA encoding HCV NS5B genotype 1b, was cloned in frame with Gal4-DNA Binding Domain. The protein was expressed with a 21 amino acid C-terminal deletion to remove transmembrane domain. Expression of NS5BΔ21/Gal4 DBD fusion protein was under control of SV40 early promoter. 3D-Sensor peptide was cloned in frame with VP16 activation domain. Expression of 3D-Sensor/VP16 AD fusion protein was under control of CMV promoter. Expression of the firefly luciferase reporter gene was inducible by the [Target protein/conformation sensitive peptide/VP16AD] complex.
It is a single-target, cell based assay. Briefly, expression of a reporter gene depends on the interaction of a short peptide, thereafter named 3D-Sensor, and native conformation of the target protein. Whenever the conformation of the target protein is modified, interaction between 3D-sensor and target protein is disrupted and reporter gene is not expressed anymore. Conformation modifiers are identified by loss of expression of reporter gene. NS5B 3D-Screen platform was generated in Huh-7 cell lines by transient transfection of three expression vectors encoding respectively • (i) HCV NS5BΔ21/Gal4-DBD fusion protein • (ii) the 3D-sensor peptide 14/VP16 fusion protein • (iii) the firefly luciferase reporter gene
Huh-7 cells were dissociated the day before transfection and seeded in T175 flasks at a density of 10^7 cells in 30 ml culture medium. Equimolar ratios of vectors were transfected in cell according to optimized jetPEI transfection protocol (PolyPlus Transfection, Illkirch, France) and 10 μg total DNA/10^6 cells. Transfection was performed for 2 hours at 37° C. and 5% CO2 in a humidified atmosphere. After two hours cells were dissociated and seeded in 96 wells plates at a density of 25,000 cells per well and 90 μl culture medium. 10 μl of compounds to be tested were added 2 hours after seeding. Final concentration of DMSO was 1%. Cells were incubated in the presence of compounds for 24 hours after which expression of firefly luciferase reporter gene was quantified. Briefly, culture medium was removed and cells were lysed by addition of 100 μl of lysis buffer containing 125 mM Tris Phosphate ph 7.8, 10 mM EDTA, 5 mM DTT, 50% glycerol and 5% Triton. Plates were vortexed 10 min at 1300 rpm. Cell lysat was transferred in OpaqueWhite Assay 96 well Flat Bottom plates. 100 μl of luciferin solution 1× were added to each well. Luciferin solution contained 40 mM Tris Phosphate ph 7.8, 0.2 mM EDTA, 67 mM DTT, 2.14 mM MgCl2, 5.4 mM MgSO4, 4.7×10^−4 M luciferin, 5.3×10^−4 M ATP and 2.7×10^−4 M Acetyl co enzyme A. Luminescence was immediately measured with Berthold Microlumat Plus LB 96V luminometer with an integration of 0.5 sec. Inhibition was calculated using the formula: % inhibition=(1−(read/average max))*100. Average max=signal in absence of compound

Row | Compound | inhibition at 10 µM [1] | EC50 [2] | EC50 [3] | melting point
1 | Cc1ccc(C(=O)C2=C(O)C(=O)N(c3ncc(S(=O)(=O)c4ccc([N+](=O)[O-])cc4)s3)C2c2ccc(C(C)(C)C)cc2)cc1 (stereo not drawn) [Example 28] | 85% | 4000 nM | 2000 nM | 
2 | Cc1nnc(N2C(=O)C(O)=C(C(=O)c3ccc(C(C)C)cc3)C2c2ccc(OC(F)(F)F)cc2)s1 (stereo not drawn) [Example 127, 3-hydroxy-4-(4-isopropyl-benzoyl)-1-(5-methyl-[1,3,4]thiadiazol-2-yl)-5-(4-trifluoromethoxy-phenyl)-1,5-dihydro-pyrrol-2-one] |  | < 1000 nM | < 1000 nM | 260 °C
3 | Cc1nnc(N2C(=O)C(O)=C(C(=O)c3ccc(C(C)C)cc3)C2c2ccc(C(F)(F)F)cc2)s1 (stereo not drawn) [Example 128, 3-hydroxy-4-(4-isopropyl-benzoyl)-1-(5-methyl-[1,3,4]thiadiazol-2-yl)-5-(4-trifluoromethyl-phenyl)-1,5-dihydro-pyrrol-2-one] |  | < 1000 nM | < 1000 nM | 257 °C
4 | Cc1cnc(N2C(=O)C(O)=C(C(=O)c3ccc(C(C)C)cc3)C2c2ccc(OC(F)(F)F)cc2)s1 (stereo not drawn) [Example 130, 3-hydroxy-4-(4-isopropyl-benzoyl)-1-(5-methyl-thiazol-2-yl)-5-(4-trifluoromethoxy-phenyl)-1,5-dihydro-pyrrol-2-one] |  | < 10000 nM | < 10000 nM | 243 to 244 °C
